# From US20210052616A1, “ANTHRACYCLINE ENCAPSULATED WITH A POLYSACCHARIDE FOR USE IN THE TREATMENT OF TUMOURS” (NANOVELOS S.A, priority 2018, published 2021)
# “Also recorded” adds a separate entry of the source.
# Legend:
# A549 = experiment: MTT cytotoxicity test, A549; format: cell-based; settings: 24 h
# From the text: (§1) In this test, […] present in the cells converts the soluble tetrazolium salt (3-4,5-dimethylthiazol-2-yl)-2,5-diphenyltetrazolium bromide) into a reduced form. The reaction yields water-insoluble purple crystalline formazan. The number of crystals formed depends on the enzyme activity so that it is directly proportional to the number of viable cells in the sample. Spectrophotometric measurement requires the use of an organic solvent to dissolve the crystals obtained (isopropanol). The change in colour intensity is measured by spectrophotometry at 570 nm wavelength. The test was performed for a number of dilutions (9) of nanoparticle solutions containing the tested anthracycline. The baseline concentration of nanoparticles for MTT tests was 2.5 mg of nanoparticles/ml. […] The study was also performed for drug-free nanoparticles (the carrier itself was obtained similarly to the nanoparticles with the drug). Cells not exposed to toxic substances were used as a control for toxicity studies.
# (§2) After reaching 85-90% confluence, the cells were trypsinised using a 0.25% trypsin solution. The cells were then centrifuged (1200 rpm, 5 min.) and suspended in a culture medium suitable for a particular cell line. […] The cells were plated at a concentration of 1000 cells/100 μl of medium per culture well (96-well plates). The prepared plates were incubated (37° C./5% CO2/22 h to 26 h). Subsequently, the culture medium was replaced with a fresh one (100 μl) containing the appropriate concentration of the tested nanoparticles and set aside for 24 h (37° C./5% CO2). After the lapse of the test time, the medium was removed and replaced with 50 μl of an MTT reagent solution at a concentration of 1 mg/ml. The plate was incubated for 2 hours (37° C./5% CO2). Subsequently, the MTT solution was removed, and 100 μl of isopropanol was added. […] The mean value of absorbance read OD570 of the cells not exposed to a toxic agent (control) should be above 0.7 [see literature item 206].
# (§3) A decrease in the number of viable cells causes a decrease in metabolic activity in the sample. This reduction directly correlates with the amount of blue and purple formazan formed, monitored basing on the optical density at 570 nm. The following equation (C.1) is used to calculate viability reduction compared to control:
# (§4) where: • OD570e is the mean value of the measured absorbance of the test samples; • OD570b is the mean value of the measured absorbance of the control.
# (§5) The results obtained were statistically analysed using the Dixon Q test.
# ACHN = experiment: MTT cytotoxicity test, ACHN; format: cell-based; settings: 24 h
# From the text: as §1, §2, §3, §4, §5
# AU565 = experiment: MTT cytotoxicity test, AU565; format: cell-based; settings: 24 h
# From the text: as §1, §2, §3, §4, §5
# MCF-7 = experiment: MTT cytotoxicity test, MCF-7; format: cell-based; settings: 24 h
# From the text: as §1, §2, §3, §4, §5
# [1] = to limit side effects; cited from earlier work
# internal organs [2] = experiment: Macroscopic and histopathological examination of internal organs at necropsy (Example 3); format: in vivo, mice
# mice = experiment: Survival of mice during treatment (Example 3); format: in vivo; settings: EPI 15 mg/kg bw; NPs-EPI 3.75 and […] bw, i.v. every second day
# OVCAR3 line cells = experiment: Anti-tumour efficacy, tumour volume, OVCAR3 xenograft, 10 mg/kg bw every 3 days (Example 4); format: in vivo, mice
# From the text: (§6) Following Example 3, mice were obtained constituting an ovarian tumour test model, which were divided into 3 groups.
# [3] = 10 mg/kg bw every 3 days, following 3 administrations
# From the text: as §6
# internal organs [4] = settings: microscopic images, dose of 10 mg/kg bw
# From the text: as §6
# [5] = A549, 1.25E+04 ng/ml NPs (pure drug equimolar)
# [6] = A549, 1.25E+05 ng/ml NPs (pure drug equimolar)
# [7] = A549, 1.25E+06 ng/ml NPs (pure drug equimolar)
# [8] = A549, 2.50E+04 ng/ml NPs (pure drug equimolar)
# [9] = A549, 2.50E+05 ng/ml NPs (pure drug equimolar)
# [10] = A549, 2.50E+06 ng/ml NPs (pure drug equimolar)
# [11] = A549, 5.00E+04 ng/ml NPs (pure drug equimolar)
# [12] = 1.25E+04 ng/ml NPs (pure drug equimolar)
# [13] = 1.25E+05 ng/ml NPs (pure drug equimolar)
# [14] = 1.25E+06 ng/ml NPs (pure drug equimolar)
# [15] = 2.50E+04 ng/ml NPs (pure drug equimolar)
# [16] = 2.50E+05 ng/ml NPs (pure drug equimolar)
# [17] = 5.00E+04 ng/ml NPs (pure drug equimolar)
# [18] = 5.00E+05 ng/ml NPs (pure drug equimolar)
# [19] = AU565, 1.25E+04 ng/ml NPs (pure drug equimolar)
# [20] = AU565, 1.25E+05 ng/ml NPs (pure drug equimolar)
# [21] = AU565, 2.50E+04 ng/ml NPs (pure drug equimolar)
# [22] = AU565, 2.50E+05 ng/ml NPs (pure drug equimolar)
# [23] = AU565, 2.50E+06 ng/ml NPs (pure drug equimolar)
# [24] = AU565, 5.00E+03 ng/ml NPs (pure drug equimolar)
# [25] = AU565, 5.00E+04 ng/ml NPs (pure drug equimolar)
# [26] = AU565, 5.00E+05 ng/ml NPs (pure drug equimolar)
# [27] = MCF-7, 1.25E+04 ng/ml NPs (pure drug equimolar)
# [28] = MCF-7, 1.25E+05 ng/ml NPs (pure drug equimolar)
# [29] = MCF-7, 1.25E+06 ng/ml NPs (pure drug equimolar)
# [30] = MCF-7, 2.50E+04 ng/ml NPs (pure drug equimolar)
# [31] = MCF-7, 2.50E+05 ng/ml NPs (pure drug equimolar)
# [32] = MCF-7, 2.50E+06 ng/ml NPs (pure drug equimolar)
# [33] = MCF-7, 5.00E+03 ng/ml NPs (pure drug equimolar)
# [34] = MCF-7, 5.00E+04 ng/ml NPs (pure drug equimolar)
# [35] = MCF-7, 5.00E+05 ng/ml NPs (pure drug equimolar)
# [36] = 10 mg/kg bw every 3 days, group average
structure (smiles),measurement,setting,value
"COc1cccc2c1C(=O)c1c(O)c3c(c(O)c1C2=O)C[C@@](O)(C(C)=O)C[C@@H]3O[C@H]1C[C@H](N)[C@H](O)[C@H](C)O1 [Dau, daunorubicin]",Average viability,A549; [5],57.00%
same,Average viability,A549; [6],49.55%
same,Average viability,A549; [7],0.53%
same,Average viability,A549; [8],55.31%
same,Average viability,A549; [9],52.82%
same,Average viability,A549; [10],65.72%
same,Average viability,"A549; A549, 5.00E+03 ng/ml NPs (pure drug equimolar)",65.72%
same,Average viability,A549; [11],50.80%
same,Average viability,"A549; A549, 5.00E+05 ng/ml NPs (pure drug equimolar)",0.60%
same,Average viability,ACHN; [12],43.86%
same,Average viability,ACHN; [13],2.75%
same,Average viability,ACHN; [14],5.35%
same,Average viability,ACHN; [15],1.60%
same,Average viability,ACHN; [16],2.24%
same,Average viability,ACHN; [17],2.88%
same,Average viability,ACHN; [18],3.02%
same,Average viability,AU565; [19],58.57%
same,Average viability,AU565; [20],25.83%
same,Average viability,"AU565; AU565, 1.25E+06 ng/ml NPs (pure drug equimolar)",1.544%
same,Average viability,AU565; [21],33.22%
same,Average viability,AU565; [22],12.14%
same,Average viability,AU565; [23],1.053%
same,Average viability,AU565; [24],75.96%
same,Average viability,AU565; [25],28.26%
same,Average viability,AU565; [26],3.245%
same,Average viability,MCF-7; [27],1.153%
same,Average viability,MCF-7; [28],17.162%
same,Average viability,MCF-7; [29],40.867%
same,Average viability,MCF-7; [30],1.072%
same,Average viability,MCF-7; [31],23.086%
same,Average viability,MCF-7; [32],69.450%
same,Average viability,MCF-7; [33],1.311%
same,Average viability,MCF-7; [34],4.421%
same,Average viability,MCF-7; [35],25.325%
same,maximum recommended cumulative dose,[1],500 mg/m^2
"COc1cccc2c1C(=O)c1c(O)c3c(c(O)c1C2=O)C[C@@](O)(C(=O)CO)C[C@@H]3O[C@H]1C[C@H](N)[C@@H](O)[C@H](C)O1 [Epi, epirubicin]",Average viability,A549; [5],95.631%
same,Average viability,A549; [6],83.913%
same,Average viability,A549; [7],29.508%
same,Average viability,A549; [8],88.608%
same,Average viability,A549; [9],75.153%
same,Average viability,A549; [10],23.423%
same,Average viability,A549; [11],74.693%
same,Average viability,ACHN; [12],65.301%
same,Average viability,ACHN; [13],63.237%
same,Average viability,ACHN; [14],46.66%
same,Average viability,ACHN; [15],63.713%
same,Average viability,ACHN; [16],60.112%
same,Average viability,ACHN; 2.50E+06 ng/ml NPs (pure drug equimolar),32.352%
same,Average viability,ACHN; 5.00E+03 ng/ml NPs (pure drug equimolar),81.178%
same,Average viability,ACHN; [17],59.828%
same,Average viability,ACHN; [18],50.916%
same,Average viability,AU565; [19],66.48%
same,Average viability,AU565; [20],48.38%
same,Average viability,AU565; [21],66.439%
same,Average viability,AU565; [22],29.222%
same,Average viability,AU565; [23],1.822%
same,Average viability,AU565; [24],84.738%
same,Average viability,AU565; [25],48.052%
same,Average viability,AU565; [26],11.723%
same,Average viability,MCF-7; [27],88.51%
same,Average viability,MCF-7; [28],46.97%
same,Average viability,MCF-7; [29],5.9%
same,Average viability,MCF-7; [30],64.7%
same,Average viability,MCF-7; [31],41.35%
same,Average viability,MCF-7; [32],1.68%
same,Average viability,MCF-7; [33],97.78%
same,Average viability,MCF-7; [34],56.01%
same,Average viability,MCF-7; [35],31.11%
same,inflammation and changes of liver and spleen compared to the control group,internal organs [2]; OVCAR3 mice,severe inflammation and changes in the structure of the liver
same,Macroscopic evaluation of internal organs: Adrenal glands,"internal organs [2]; mouse #5, 15 mg/kg bw",No visible changes
same,Macroscopic evaluation of internal organs: Bladder,"internal organs [2]; mouse #5, 15 mg/kg bw",No visible changes
same,Macroscopic evaluation of internal organs: Brain,"internal organs [2]; mouse #5, 15 mg/kg bw",No visible changes
same,Macroscopic evaluation of internal organs: Heart,"internal organs [2]; mouse #5, 15 mg/kg bw",No visible changes
same,Macroscopic evaluation of internal organs: Left kidney,"internal organs [2]; mouse #5, 15 mg/kg bw",Consistency softer than normal
same,Macroscopic evaluation of internal organs: Liver,"internal organs [2]; mouse #5, 15 mg/kg bw","consistency softer than normal, blood vessels; also recorded: Liver surface colour dark cherry to brown,"
same,Macroscopic evaluation of internal organs: Lung,"internal organs [2]; mouse #5, 15 mg/kg bw",No visible changes
same,Macroscopic evaluation of internal organs: Pancreas,"internal organs [2]; mouse #5, 15 mg/kg bw",No visible changes
same,Macroscopic evaluation of internal organs: Reproductive organs,"internal organs [2]; mouse #5, 15 mg/kg bw",No visible changes
same,Macroscopic evaluation of internal organs: Right kidney,"internal organs [2]; mouse #5, 15 mg/kg bw",Consistency softer than normal
same,Macroscopic evaluation of internal organs: Spleen,"internal organs [2]; mouse #5, 15 mg/kg bw","1.6 cm × 0.4 cm × 0.1 cm in size, and slightly smaller, dark brown in colour"
same,Macroscopic evaluation of internal organs: Stomach,"internal organs [2]; mouse #5, 15 mg/kg bw",No visible changes
same,Macroscopic evaluation of internal organs: Thymus,"internal organs [2]; mouse #5, 15 mg/kg bw",No visible changes
same,External appearance of the mouse: skin thick,"internal organs [2]; mouse #5, EPI/OVCAR3 group, 15 mg/kg bw",0.21 mm
same,External appearance of the mouse,"internal organs [2]; mouse #5, EPI/OVCAR3 group, 15 mg/kg bw, 15 mg/kg","Anal area dirty with faeces, mouse; also recorded: cachectic"
same,death or survival of the mice during treatment,mice,resulted in the death of the mice
same,Average tumour volume (mm^3) Before necropsy,"OVCAR3 line cells; 10 mg/kg bw every 3 days (group K), after 3 administrations",124.45 ± 57.05 mm^3
same,Average tumour volume (mm^3) Before 1st administration,OVCAR3 line cells; [36],143.56 ± 9.22 mm^3
same,Average tumour volume (mm^3) Before 2nd administration,OVCAR3 line cells; [36],148.77 ± 41.82 mm^3
same,Average tumour volume (mm^3) Before 3rd administration,OVCAR3 line cells; [36],131.00 ± 42.96 mm^3
same,average increase of tumour volume,"OVCAR3 line cells; 10 mg/kg bw, after the first dose",3.63%
same,average decrease of body weight,[3],22.55%
same,Appearance of the organ: Tumour,internal organs [4],"anaplastic lesions, moderate tumour necrosis"
same,Appearance of the organ: Liver,internal organs [4]; 10 mg/kg,"Hyperaemia, features of hepatocyte; also recorded: feathery degeneration, focal necrosis"
same,Appearance of the organ: Reproductive organs,internal organs [4]; 10 mg/kg,"Severe lesions, endometrial hypertrophy,; also recorded: cystic lesions, the growth of Leydig cells"
